In US20240294544A1, “NEW SUBSTITUTED PYRIDINES AS FUNGICIDES” (BASF SE, priority 2021, published 2024):

Key:
Assay type in all cases: cell-based
Botrytis cinerea = test: Example 1: activity against the grey mold Botrytis cinerea in the microtiterplate test; conditions: 31 ppm active substance; relative to compound-free control (100%); 405 nm, 7 days after inoculation
Fusarium culmorum = test: Example 2: activity against Fusarium culmorum in the microtiterplate test; conditions: 31 ppm active substance; relative to compound-free control (100%); 405 nm, 7 days after inoculation
Method: The active compounds were formulated separately as a stock solution having a concentration of 10000 ppm in dimethyl sulfoxide.
The stock solutions were mixed according to the ratio, pipetted onto a micro titer plate (MTP) and diluted with water to the stated concentrations. A spore suspension of Fusarium culmorum in an aqueous biomalt or yeast-bactopeptone-glycerine or DOB solution was then added. The plates were placed in a water vapor-saturated chamber at a temperature of 18° C. Using an absorption photometer, the MTPs were measured at 405 nm 7 days after the inoculation.
(§1) The measured parameters were compared to the growth of the active compound-free control variant (100%) and the fungus-free blank value to determine the relative growth in % of the pathogens in the respective active compounds.

[1] = system: Colletotrichum orbiculare; test: Comparative Example 3: activity against anthracnose caused by Colletotrichum orbiculare in the microtiterplate test; conditions: at 2 ppm; relative to compound-free control (100%); 405 nm, 7 days after inoculation
Method: (§2) The active compounds were formulated separately as a stock solution having a concentration of 10000 ppm in dimethyl sulfoxide. The stock solutions were mixed according to the ratio, pipetted onto a micro titer plate (MTP) and diluted with water to the stated concentrations. A spore suspension of Colletotrichum orbiculare in an aqueous bio malt solution was then added. The plates were placed in a water vapor-saturated chamber at a temperature of 18° C. Using an absorption photometer, the MTPs were measured at 405 nm 7 days after the inoculation.
as §1

Leptosphaeria nodorum = test: Comparative Example 2: activity against wheat leaf spots caused by Leptosphaeria nodorum (microtiter plate); conditions: relative to compound-free control (100%), 405 nm, 7 days after inoculation
Method: as §2, with “Leptosphaeria nodorum” for “Colletotrichum orbiculare”, “biomalt or yeast-bactopeptone-glycerine or DOE” for “bio malt”
as §1

Septoria tritici = test: Comparative Example 1: activity against leaf blotch on wheat caused by Septoria tritici (microtiter plate); conditions: at 125 ppm; relative to compound-free control (100%); 405 nm, 7 days after inoculation
Method: as §2, with “Septoria tritici” for “Colletotrichum orbiculare”, “biomalt or yeast-bactopeptone-glycerine or DOB” for “bio malt”
as §1

| SMILES | growth of the pathogen (Botrytis cinerea) [%] | growth of the pathogen (Fusarium culmorum) [%] | Growth (%) at 2 pm [1] [%] | Growth (%) at 125 pm (Leptosphaeria nodorum) [%] | Growth (%) at 125 pm (Septoria tritici) [%] |
| --- | --- | --- | --- | --- | --- |
| Cc1cc(C2=NC(C)(C(C)(C)C)Oc3ccccc32)cnc1C (stereo not shown) [Ex-2] | 0 |  |  |  |  |
| Cc1cc(C2=NC(C)(C(C)(C)C)Oc3ccccc32)cnc1C(F)F (stereo not shown) [Ex-3] | 0 |  |  |  |  |
| Cc1cc(C2=NC3(CCC(C)(C)C3)Oc3ccccc32)cnc1C (stereo not shown) [Ex-4] | 0 | 1 |  |  |  |
| Cc1cc(C2=NC(C)(C(C)C)Oc3ccccc32)cnc1C (stereo not shown) [Ex-5] | 0 |  |  |  |  |
| Cc1cc(C2=NC(C)(C)Oc3ccccc32)cnc1C [Ex-6] | 0 | 1 |  |  |  |
| Cc1cc(C2=NC(C)(c3ccc(Cl)cc3)Oc3ccccc32)cnc1C(F)F (stereo not shown) [Ex-51] |  |  | 22 | 15 | 46 |
| Cc1cc(C2=NC(C)(Cc3ccc(F)cc3)Oc3ccccc32)cnc1C(F)F (stereo not shown) [Ex-58] |  |  | 55 | 8 | 73 |
| CC1(c2ccc(Cl)cc2)N=C(c2ccc(Cl)nc2)c2ccccc2O1 (stereo not shown) [reference compound] |  |  | 88 | 47 | 69 |
| CC1(Cc2ccc(F)cc2)N=C(c2ccc(Cl)nc2)c2ccccc2O1 (stereo not shown) [reference compound] |  |  | 96 | 43 | 93 |
